Experimental data as given in patent US4228293A, “Iodo-A-23187 derivatives” (Eli Lilly and Company, priority 1978, dated 1980).
“Also recorded” adds a separate entry of the source.

Key:
[1] = tested on: Staphylococcus aureus (H-Heatley strain, NRRL B-314); experiment: Antibacterial bioassay (Westhead); format: cell-based; details: S. aureus H-Heatley NRRL B-314 bioassay; free acid
Excerpt: The compounds of this invention are useful antibacterial agents. In this aspect, these compounds may be used in the same manner in which the parent antibiotic is used, as described in U.S. Pat. No. 3,923,823. A bioassay for the antibacterial activity of A-23187 has been described by J. E. Westhead in Antimicrobial Agents and Chemotherapy 11 (5), 916-918 (1977). The test organism for this bioassay is Staphylococcus aureus (H-Heatley strain, NRRL B-314).

[2] = Acute toxicity in mice, intraperitoneal; details: mouse, in vivo, ip, mg/kg × 1, free acid
Description: The compounds of the present invention are, in general, less toxic than the parent antibiotic. Table II summarizes the acute toxicities of representative compounds in mice, expressed as LD50, when the compounds are administered intraperitoneally.

[3] = target: cation transport ATPase in liver mitochondria; experiment: In vitro inhibition of cation transport ATPase in liver mitochondria; format: biochemical
Excerpt: In yet another aspect, the compounds of this invention are active as inhibitors of the enzyme ATPase. ATPase, an alkali-metal-sensitive enzyme found in cell membranes, is involved in the energy necessary for active transport. "Active transport" refers to the energy-requiring series of operations whereby intracellular and extracellular fluids maintain their compositions. Inhibitors of ATPase reduce the energy required for active transport. Table III summarizes the results of in vitro tests measuring inhibition of cation transport ATPase in liver mitochondria [measured as half effective concentration (Ic50) in mcg/ml].

[4] = cited from earlier work

SMILES	Bioassay [1] [µg/mL]	LD50 [2] [mg/kg]	half effective concentration (Ic50), ATPase induced by CaCl2 [3] [µg/mL]	half effective concentration (Ic50), ATPase induced by K^+ monazomycin [3] [µg/mL]	transport of Mg^2+ compared with Ca^2+ ([4]; Mg^2+ vs Ca^2+)	discrimination for divalent over monovalent cations ([4]; divalent vs monovalent cations)
CNc1ccc2oc(C[C@H]3O[C@@]4(CC[C@H]3C)O[C@H]([C@H](C)C(=O)c3cc(I)c[nH]3)[C@H](C)C[C@H]4C)nc2c1C(=O)O [23-iodo-A-23187, 5-(methylamino)-2-[[3β,9α,11β-trimethyl-8-[1α-methyl-2-oxo-2-(4-iodo-1H-pyrrol-2-yl)ethyl]-1,7-dioxaspiro[5.5]undec-2β-yl]methyl]-4-benzoxazolecarboxylic acid]	1331	25	5	< 0.05		
CNc1ccc2oc(C[C@H]3O[C@@]4(CC[C@H]3C)O[C@H]([C@H](C)C(=O)c3ccc[nH]3)[C@H](C)C[C@H]4C)nc2c1C(=O)O [A-23187]	1060	5.8	0.5	0.5	transports Mg^2+ with a similar efficiency to Ca^2+	substantially selective for the transport of divalent over monovalent cations; also recorded: not complete
CNc1ccc2oc(C[C@H]3O[C@@]4(CC[C@H]3C)O[C@H]([C@H](C)C(=O)c3cc(I)c(I)[nH]3)[C@H](C)C[C@H]4C)nc2c1C(=O)O [23,24-diiodo-A-23187, 5-(methylamino)-2-[[3β,9α,11β-trimethyl-8-[1α-methyl-2-oxo-2-(4,5-diiodo-1H-pyrrol-2-yl)ethyl]-1,7-dioxaspiro-[5.5]undec-2β-yl]methyl]-4-benzoxazolecarboxylic acid]	560	100		0.8		
